From the supplement of paper PMC13380429

Assays:
Conditions in all cases: 72 h
[1] = system: Calu-3; assay: relative viability EC50 (midpoint between 100% and the lowest measured viability); higher = less toxic
[2] = system: Caco-2; assay: as above
[3] = system: Vero E6; assay: as above
[4] = system: U2OS; assay: as above
[5] = system: HepG2; assay: as above
[6] = system: Calu-3; assay: cell viability relative to DMSO; higher = less toxic
[7] = system: Caco-2; assay: as above
[8] = system: Vero E6; assay: as above
[9] = system: U2OS; assay: as above
[10] = system: HepG2; assay: as above
[11] = system: Calu-3; assay: drug sensitivity score (DSS) for viability; higher = more toxic; extreme values may be limits of the assay
[12] = system: Caco-2; assay: as above
[13] = system: Vero E6; assay: as above
[14] = system: U2OS; assay: as above
[15] = system: HepG2; assay: as above

| Compound | relative viability EC50 [1] [µM] | relative viability EC50 [2] [µM] | relative viability EC50 [3] [µM] | relative viability EC50 [4] [µM] | relative viability EC50 [5] [µM] | cell viability ([6]; 1 nM) [%] | cell viability ([6]; 10 nM) [%] | cell viability ([6]; 100 nM) [%] | cell viability ([6]; 1000 nM) [%] | cell viability ([6]; 10000 nM) [%] | cell viability ([7]; 1 nM) [%] | cell viability ([7]; 10 nM) [%] | cell viability ([7]; 100 nM) [%] | cell viability ([7]; 1000 nM) [%] | cell viability ([7]; 10000 nM) [%] | cell viability ([8]; 1 nM) [%] | cell viability ([8]; 10 nM) [%] | cell viability ([8]; 100 nM) [%] | cell viability ([8]; 1000 nM) [%] | cell viability ([8]; 10000 nM) [%] | cell viability ([9]; 1 nM) [%] | cell viability ([9]; 10 nM) [%] | cell viability ([9]; 100 nM) [%] | cell viability ([9]; 1000 nM) [%] | cell viability ([9]; 10000 nM) [%] | cell viability ([10]; 1 nM) [%] | cell viability ([10]; 10 nM) [%] | cell viability ([10]; 100 nM) [%] | cell viability ([10]; 1000 nM) [%] | cell viability ([10]; 10000 nM) [%] | drug sensitivity score [11] | drug sensitivity score [12] | drug sensitivity score [13] | drug sensitivity score [14] | drug sensitivity score [15] |
| --- | --- | --- | --- | --- | --- | --- | --- | --- | --- | --- | --- | --- | --- | --- | --- | --- | --- | --- | --- | --- | --- | --- | --- | --- | --- | --- | --- | --- | --- | --- | --- | --- | --- | --- | --- |
| O=C(O)c1ccccc1Nc1cc(Cl)ccc1C(=O)O [lobenzarit] | > 10 | > 10 | > 10 | > 10 | > 10 | 111 | 88.1 | 108 | 95.2 | 90.3 | 95.9 | 101 | 99.1 | 93.1 | 98.2 | 97.7 | 97.3 | 86 | 87.4 | 114 | 91.3 | 96 | 101 | 96.9 | 104 | 106 | 109 | 95.6 | 103 | 105 | 0.2 | 0 | 0 | 0 | 0 |
| NCCCC[C@H](NC(=O)[C@@H]1CCCN1C(=O)[C@@H]1CSSC[C@H](N)C(=O)N[C@@H](Cc2ccc(O)cc2)C(=O)N[C@@H](Cc2ccccc2)C(=O)N[C@@H](CCC(N)=O)C(=O)N[C@@H](CC(N)=O)C(=O)N1)C(=O)NCC(N)=O [lypressin] | > 10 | > 10 | > 10 | > 10 | > 10 | 95.6 | 98.1 | 103 | 93.4 | 92.2 | 98.6 | 99.6 | 97.8 | 102 | 101 | 97.4 | 101 | 95.4 | 99.1 | 100 | 99.7 | 105 | 97.5 | 98.8 | 101 | 105 | 97.9 | 97.8 | 100 | 100 | 0 | 0 | 0 | 0 | 0 |
| C[N+]1(C)CCCC(OC(=O)C(O)(c2ccccc2)c2ccccc2)C1 (stereo not given) [mepenzolate] | > 10 | > 10 | > 10 | > 10 | > 10 | 105 | 103 | 96.1 | 110 | 94.5 | 91.3 | 87.1 | 96.6 | 101 | 101 | 94.9 | 105 | 97.5 | 99.6 | 99.8 | 99.7 | 101 | 96.6 | 101 | 96.9 | 107 | 98.1 | 104 | 91.9 | 94.3 | 0 | 0 | 0 | 0 | 0 |
| CN(C)C(=O)Oc1ccc[n+](C)c1 [mestinon] | > 10 | > 10 | > 10 | > 10 | > 10 | 96.5 | 95.1 | 102 | 93.7 | 94.5 | 91.5 | 95.9 | 107 | 99.8 | 99.1 | 99.8 | 108 | 102 | 104 | 93.5 | 104 | 102 | 106 | 98.6 | 104 | 95.1 | 93 | 101 | 91.2 | 96.3 | 0 | 0 | 0 | 0 | 0 |
| C[N+]1(C)[C@@H]2CC[C@H]1C[C@@H](OC(=O)C(CO)c1ccccc1)C2 (stereo not given in full) [methylatropine-nitrate] | > 10 | > 10 | > 10 | > 10 | > 10 | 93 | 100 | 108 | 97.2 | 106 | 96.9 | 93.4 | 108 | 104 | 99.6 | 95.6 | 98.8 | 95.3 | 99.1 | 104 | 95.4 | 95.4 | 100 | 100 | 101 | 96.7 | 105 | 102 | 98.7 | 99.8 | 0 | 0 | 0 | 0 | 0 |
| Cc1c(NC(=O)c2cccnc2)c(=O)n(-c2ccccc2)n1C [nifenazone] | > 10 | > 10 | > 10 | > 10 | > 10 | 106 | 106 | 92.3 | 100 | 106 | 110 | 98.7 | 93.2 | 97.1 | 89.4 | 105 | 101 | 99.3 | 101 | 97.2 | 98.3 | 104 | 102 | 105 | 101 | 105 | 91.9 | 109 | 94.4 | 90.6 | 0 | 0 | 0 | 0 | 0 |
| O=C(O)c1cccnc1Nc1cccc(C(F)(F)F)c1 [niflumic-acid] | > 10 | > 10 | > 10 | > 10 | > 10 | 100 | 90.9 | 98.7 | 99.7 | 95.2 | 108 | 98.5 | 98.4 | 96.2 | 100 | 100 | 96 | 97.4 | 97.3 | 101 | 99.7 | 98 | 104 | 106 | 102 | 103 | 101 | 99.6 | 97.2 | 104 | 0 | 0 | 0 | 0 | 0 |
| COC(=O)C1=C(C#N)NC(C)=C(C(=O)OC(C)C)C1c1cccc([N+](=O)[O-])c1 (stereo not given) [nilvadipine] | > 10 | > 10 | > 10 | > 10 | > 10 | 90.9 | 101 | 90.8 | 97.5 | 120 | 96.1 | 84.7 | 92.7 | 94.1 | 96 | 95.9 | 93.6 | 100 | 97.9 | 109 | 96.6 | 98.4 | 97 | 96.7 | 104 | 108 | 98.6 | 109 | 96.1 | 95 | 0 | 0 | 0 | 0 | 0 |
| COC(=O)N[C@H](C(=O)N1CCC[C@H]1C(=O)Nc1ccc([C@@H]2CC[C@@H](c3ccc(NC(=O)[C@@H]4CCCN4C(=O)[C@@H](NC(=O)OC)C(C)C)cc3)N2c2ccc(C(C)(C)C)cc2)cc1)C(C)C [ombitasvir] | > 10 | > 10 | > 10 | > 10 | > 10 | 105 | 100 | 108 | 98.1 | 91.7 | 96 | 104 | 95.1 | 96.8 | 100 | 99.8 | 96.2 | 94.2 | 94.9 | 102 | 94.3 | 95.1 | 100 | 98 | 86.5 | 99.4 | 100 | 92.1 | 92.3 | 108 | 0 | 0 | 0 | 0.3 | 0 |
| COC(=O)[C@H](Cc1cccc(C(=N)N)c1)[C@@H](C)NC(=O)c1ccc(-c2cc[n+]([O-])cc2)cc1 [otamixaban] | > 10 | > 10 | > 10 | > 10 | > 10 | 88.9 | 92 | 90.5 | 94.4 | 105 | 104 | 104 | 101 | 99.2 | 104 | 103 | 101 | 94.1 | 97.9 | 96.3 | 99.1 | 95.3 | 98.3 | 97.8 | 104 | 89.3 | 103 | 98.6 | 102 | 96.7 | 0 | 0 | 0 | 0 | 0 |
| Clc1ccc(CO/N=C(\Cn2ccnc2)c2ccc(Cl)cc2Cl)c(Cl)c1 [oxiconazole] | > 10 | > 10 | > 10 | > 10 | > 10 | 97.5 | 87.3 | 83.4 | 94.8 | 103 | 106 | 94.8 | 99.8 | 90 | 83.5 | 99.9 | 105 | 95.4 | 102 | 95.5 | 100 | 97.3 | 97.6 | 91.1 | 92 | 97.4 | 103 | 105 | 98.5 | 89.7 | 0 | 1.1 | 0 | 0 | 0 |
| C=CCOc1ccccc1OCC(O)CNC(C)C (stereo not given) [oxprenolol] | > 10 | > 10 | > 10 | > 10 | > 10 | 111 | 90.8 | 108 | 93.2 | 103 | 102 | 91.5 | 98 | 91.2 | 97.9 | 98.6 | 104 | 102 | 106 | 98.6 | 106 | 97.7 | 99.8 | 101 | 102 | 97.4 | 97.8 | 93.3 | 113 | 107 | 0 | 0 | 0 | 0 | 0 |
| Cc1ccc(S(N)(=O)=O)cc1 [para-toluenesulfonamide] | > 10 | > 10 | > 10 | > 10 | > 10 | 102 | 94.8 | 91.1 | 91.8 | 95.9 | 103 | 99.2 | 98.1 | 98.9 | 100 | 102 | 94.6 | 98.4 | 99.2 | 103 | 100 | 96 | 97.7 | 102 | 104 | 105 | 107 | 110 | 94.4 | 120 | 0 | 0 | 0 | 0 | 0 |
